Key:
[1] = test system: water immersed restraint stress ulcerization; assay: Rat water immersed restraint stress ulcerization (Test Example 1); assay type: in vivo, male Wistar rats; settings: dose 5 mg/kg orally 90 minutes before stress loading; for Ulcer Index (Mean ± S.B.): 7 hours immersion at 22 ± 1 °C, suspended in saline containing 10% HCO-60, sum of ulcer lengths per rat; for Inhibition rate (%): versus untreated control
Experimental: Each test compound was suspended in physiological saline containing 10% polyoxyethylene cured caster oil (HCO-60: manufactured by Nikko Chemicals), and was then tested.
(§1) The test was conducted according to the method of rat water immersed restraint stress ulcerization proposed by Okabe et al. (Jpn. J. Pharmacol., 18, 9, (1968)). That is, male Wistar rats weighing 230 to 250 g were fasted for 24 hours, put in a stress cage in the erect position, and were immersed in a thermostatic water tank at 22 ± 1 °C up to the sternal process. The rats were sacrificed 7 hours later, and the stomach was removed. The pylorus was ligated and 10 ml of physiological saline was infused into the stomach. The cardia also was ligated and dipped in 1% formalin for 5 to 10 minutes. Afterwards, the stomach was opened along the greater curvature, and any blood deposited on the mucosa in the glandular portion was wiped off gently. The length of the remaining ulcers (erosions) was measured. The sum (mm) of the length of the ulcers in each rat was defined as the ulcer index. The test material was administered orally 90 minutes before stress loading (dose: 5 mg/kg).

[2] = test system: water immersed restraint stress ulcerization; assay: Rat water immersed restraint stress ulcerization, gum arabic preparation (Test Example 2); assay type: in vivo, Male Wister rats; settings: for Ulcer Index (Mean ± S.B.) / Inhibition rate (%): dose 25 mg/kg orally, preparation with 5% gum arabic (2 ml/kg); for Ulcer Index (Mean ± S.B.): rats fasted overnight; for Inhibition rate (%): versus control; for antiulcer activity: summary in words of Table 2, no significant difference between the two compounds
Experimental: as §1
Male Wister rats weighing 200 to 220 g were fasted overnight and the preparation containing Compound 2 (S-(2-cyclohexylethyl)-N-(2-decenoyl) cysteamine) and 5% gum arabic or the preparation containing the S-oxide derivarive of Compound 2 (S-(2-cyclohexylethyl)-N-(2-decenoyl) cysteamine S-oxide) and 5% gum arabic was orally administered to each rat (2 ml/kg).
Antiulcer activity of each test compound was evaluated in the same manner as in Test Example 1.

In the case of `CCCCCCC/C=C/C(=O)NCCSCC1CCCCN1C` (stereo not drawn) [Compound 8, N-(2-decenoyl)-S-[(1-methylpiperidyl)methyl] cysteamine], the “Ulcer Index (Mean ± S.B.)” value [1] is reported as 8.0 ± 1.7 mm and the “Inhibition rate (%)” value [1] is reported as 63.6%.

For `CCCCCCCC=CC(=O)NCC[S+]([O-])CCC1CCCCC1` (stereo not drawn) [S-oxide of Compound 2, S-(2-cyclohexylethyl)-N-(2-decenoyl) cysteamine S-oxide], the “Ulcer Index (Mean ± S.B.)” value [2] was 12.8 ± 1.9 mm, the “Inhibition rate (%)” value [2] was 46.2% and the antiulcer activity [2] was “excellent antiulcer activity”.

With `CCCCCCCC=CC(=O)NCCSCCC1CCCCC1` [Compound 2, S-(cyclohexylethyl)-N-(2-decenoyl) cysteamine] the “Ulcer Index (Mean ± S.B.)” value [1] was 6.7 ± 1.7 mm, the “Inhibition rate (%)” value [1] was 69.5% and the “Ulcer Index (Mean ± S.B.)” value [2] was 10.0 ± 1.5 mm. The “Inhibition rate (%)” value [2] was 58.0% and the antiulcer activity [2] was “excellent antiulcer activity”.
